This is an account of results in article PMC6940761, “Novel Diels–Alder Type Adducts from Morus alba Root Bark Targeting Human Monoamine Oxidase and Dopaminergic Receptors for the Management of Neurodegenerative Diseases” (International Journal of Molecular Sciences, 2019).

Several values for one entry are separate records, joined by “and”; a condition that tells them apart may be missing. Identical values can stand only once. Like-named read-outs stand apart in the source and are kept apart here.

The target in assay [1] is T1, Human Monoamine Oxidase A (hMAO-A) (Homo sapiens, UniProt P21397).
T1 construct: purchased Sigma-Aldrich
T1 sequence (P21397 1-527): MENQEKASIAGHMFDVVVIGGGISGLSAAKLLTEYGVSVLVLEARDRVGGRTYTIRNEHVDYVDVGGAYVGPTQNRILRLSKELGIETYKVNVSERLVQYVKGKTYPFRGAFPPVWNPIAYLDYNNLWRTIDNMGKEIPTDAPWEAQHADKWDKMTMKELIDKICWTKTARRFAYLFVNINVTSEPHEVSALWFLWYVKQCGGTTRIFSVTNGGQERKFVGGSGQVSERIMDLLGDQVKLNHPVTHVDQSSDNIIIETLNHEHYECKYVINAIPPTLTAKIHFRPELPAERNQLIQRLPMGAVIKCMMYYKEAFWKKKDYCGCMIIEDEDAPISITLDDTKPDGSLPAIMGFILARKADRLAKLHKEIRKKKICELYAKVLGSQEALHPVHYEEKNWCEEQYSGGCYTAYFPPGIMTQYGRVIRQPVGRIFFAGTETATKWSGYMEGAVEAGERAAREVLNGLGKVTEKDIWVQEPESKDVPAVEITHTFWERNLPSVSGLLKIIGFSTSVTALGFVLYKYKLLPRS
Description: hMAO-A inhibition, MAO-Glo chemiluminescent assay and enzyme kinetics. The note with it: for Inhibition Type: Lineweaver–Burk and Dixon plots. It is filed as biochemical.

Assay [2] deals with T2, Human Monoamine Oxidase B (hMAO-B) (Homo sapiens, UniProt P27338).
T2 construct: purchased Sigma-Aldrich
T2 sequence (P27338 1-520): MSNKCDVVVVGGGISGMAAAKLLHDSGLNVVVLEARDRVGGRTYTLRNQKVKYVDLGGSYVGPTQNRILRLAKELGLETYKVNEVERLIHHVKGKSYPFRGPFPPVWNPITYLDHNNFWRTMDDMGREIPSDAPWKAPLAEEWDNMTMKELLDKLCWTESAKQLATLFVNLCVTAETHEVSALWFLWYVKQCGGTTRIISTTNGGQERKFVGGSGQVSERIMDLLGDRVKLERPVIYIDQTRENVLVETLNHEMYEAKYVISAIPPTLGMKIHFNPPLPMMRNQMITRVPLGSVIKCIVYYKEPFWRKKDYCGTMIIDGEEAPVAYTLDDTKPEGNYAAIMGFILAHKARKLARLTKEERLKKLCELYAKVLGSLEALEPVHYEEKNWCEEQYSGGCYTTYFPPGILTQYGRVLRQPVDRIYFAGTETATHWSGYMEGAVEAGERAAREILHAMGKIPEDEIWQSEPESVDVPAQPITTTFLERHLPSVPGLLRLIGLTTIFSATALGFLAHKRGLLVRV
Description: hMAO-B inhibition, MAO-Glo chemiluminescent assay and enzyme kinetics. In kind it is biochemical. The note with it: for Inhibition Type: Lineweaver–Burk and Dixon plots; for IC50: log dose-inhibition curve, triplicate, read-out: IC50 (μM, Mean ± SD).

Another assay relates to hMAO. Description: initial hMAO activity screen at 100 µg/mL (MAO-Glo). It is filed as biochemical, human. The note with it: isozyme not stated.
Assay [3] addresses T3, human dopamine D2L receptor (hD2LR) (Homo sapiens, UniProt P14416).
T3 construct: host or cells: CHO (CHO-D2LR)
Description: cell-based functional GPCR assay, Ca2+ mobilization, CHO-D2LR. The conditions noted are these: for inhibition at 100 µM / % Stimulation of control agonist response: D2L (h), 100 µM test compound; for inhibition at 100 µM: control 700 nM DA, read-out: % Inhibition of control agonist response (converted); for % Stimulation of control agonist response: control 10 μM DA; for inhibition at 25 µM: D2LR, 25 µM test compound, read-out: % inhibition of DA response.

For assay [4], the target named is human dopamine D1 receptor (hD1R) (Homo sapiens, UniProt P21728). Briefly: cell-based functional GPCR assay, cAMP modulation, CHO-D1R. The conditions noted are these: for % Stimulation of control agonist response: D1 (h), 100 µM test compound, control 10 μM DA; for inhibition at 100 µM: read-out: % Inhibition of control agonist response; for inhibition at 25 µM: read-out: % inhibition of DA response.
Chain of human dopamine D1 receptor (hD1R) (P21728 whole entry): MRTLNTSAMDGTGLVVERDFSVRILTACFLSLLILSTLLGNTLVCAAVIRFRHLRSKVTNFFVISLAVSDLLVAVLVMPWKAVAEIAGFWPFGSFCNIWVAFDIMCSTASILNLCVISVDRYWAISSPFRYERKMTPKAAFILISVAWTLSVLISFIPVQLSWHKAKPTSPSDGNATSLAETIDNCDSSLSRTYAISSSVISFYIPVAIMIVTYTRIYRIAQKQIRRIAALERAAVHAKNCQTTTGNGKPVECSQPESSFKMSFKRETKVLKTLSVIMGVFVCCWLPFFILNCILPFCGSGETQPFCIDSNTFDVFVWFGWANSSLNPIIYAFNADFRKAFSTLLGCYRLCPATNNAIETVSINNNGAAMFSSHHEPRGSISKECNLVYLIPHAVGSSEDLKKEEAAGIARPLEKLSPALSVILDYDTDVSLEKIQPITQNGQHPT

Assay [5] addresses human dopamine D3 receptor (hD3R) (Homo sapiens, UniProt P35462). Description: cell-based functional GPCR assay, cAMP modulation, CHO-D3R. The note with it: for % Stimulation of control agonist response: D3 (h), 100 µM test compound, control 300 nM DA; for agonist response (%): D3R, 25 µM test compound; for inhibition at 100 µM: read-out: % Inhibition of control agonist response.

Assay [6] concerns the target T4, human dopamine D4 receptor (hD4R) (Homo sapiens, UniProt P21917).
T4 sequence (P21917 1-419): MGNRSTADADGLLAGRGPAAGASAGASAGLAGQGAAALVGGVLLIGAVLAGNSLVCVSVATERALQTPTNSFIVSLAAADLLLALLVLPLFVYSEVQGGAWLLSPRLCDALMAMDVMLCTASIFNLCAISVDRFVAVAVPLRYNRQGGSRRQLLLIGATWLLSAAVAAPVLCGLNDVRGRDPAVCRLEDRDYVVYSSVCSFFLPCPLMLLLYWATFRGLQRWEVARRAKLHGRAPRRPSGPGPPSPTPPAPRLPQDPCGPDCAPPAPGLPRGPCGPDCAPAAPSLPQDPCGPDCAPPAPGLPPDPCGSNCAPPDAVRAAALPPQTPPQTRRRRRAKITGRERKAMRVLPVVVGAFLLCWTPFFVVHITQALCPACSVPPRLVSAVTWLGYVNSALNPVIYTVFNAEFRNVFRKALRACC
Description: cell-based functional GPCR assay, cAMP modulation, CHO-D4R. The note with it: for % Stimulation of control agonist response: D4 (h), 100 µM test compound, control 300 nM DA; for agonist response (%): D4R, 25 µM test compound; for inhibition at 100 µM: read-out: % Inhibition of control agonist response.

Where [7] appears, read: hMAO-A, Dixon plot, read-out: Ki Value.
Setting [8] is: hMAO-A, log dose-inhibition curve, triplicate, read-out: IC50 (μM, Mean ± SD).
[9] abbreviates: hD2LR antagonist effect, read-out: IC50 (inhibition of control agonist response).

T3 sequence (P14416 whole entry): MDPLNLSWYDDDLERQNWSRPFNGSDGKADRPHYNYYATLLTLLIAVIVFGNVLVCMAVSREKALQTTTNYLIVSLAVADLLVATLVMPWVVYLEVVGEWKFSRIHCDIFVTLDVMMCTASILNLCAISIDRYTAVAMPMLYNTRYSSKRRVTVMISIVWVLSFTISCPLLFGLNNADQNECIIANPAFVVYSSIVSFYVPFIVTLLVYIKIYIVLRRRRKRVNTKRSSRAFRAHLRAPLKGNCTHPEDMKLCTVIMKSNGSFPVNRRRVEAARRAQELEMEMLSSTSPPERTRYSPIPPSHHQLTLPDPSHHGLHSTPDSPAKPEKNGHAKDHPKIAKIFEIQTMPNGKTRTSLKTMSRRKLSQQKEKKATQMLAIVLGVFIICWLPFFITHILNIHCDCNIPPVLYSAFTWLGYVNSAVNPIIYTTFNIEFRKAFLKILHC
Chain of human dopamine D3 receptor (hD3R) (P35462 whole entry): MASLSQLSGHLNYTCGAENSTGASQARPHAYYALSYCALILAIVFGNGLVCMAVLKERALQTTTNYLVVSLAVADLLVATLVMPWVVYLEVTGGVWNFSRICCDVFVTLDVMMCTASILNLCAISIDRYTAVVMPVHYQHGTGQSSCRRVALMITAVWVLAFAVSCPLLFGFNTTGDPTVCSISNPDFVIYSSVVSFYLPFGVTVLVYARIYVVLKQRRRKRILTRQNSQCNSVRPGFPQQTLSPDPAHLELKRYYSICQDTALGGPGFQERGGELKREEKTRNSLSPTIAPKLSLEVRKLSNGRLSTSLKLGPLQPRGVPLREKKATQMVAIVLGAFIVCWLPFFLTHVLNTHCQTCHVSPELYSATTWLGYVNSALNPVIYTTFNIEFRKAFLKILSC

For the compound `CC1=C[C@H]2c3c(O)cc(-c4cc5ccc(O)cc5o4)cc3O[C@@]3(c4ccc(O)cc4O)Oc4cc(O)ccc4[C@H](C1)[C@@H]23` [Compound 1, mulberrofuran G], the Ki was 27 ± 3.98 µM in assay [1] (setting [7]) and 17 ± 3.31 µM in assay [2] (Dixon plot, read-out: Ki Value). In addition, the “Inhibition Type” value was “Competitive” in assay [1] (hMAO-A) and “Noncompetitive” in assay [2]. The IC50 in assay [1] (setting [8]) came out at 54.79 ± 0.03 µM; in assay [2] it was 18.1 ± 1.06 µM; in assay [3] (setting [9]) it was 2.41 µM; in assay [4] it was 6.13 µM. For the same compound, the “% inhibition of hMAO activity” value in the assay on hMAO turned out to be 93.87%. Besides, the inhibition at 100 µM in assay [3] is 101%; in assay [4], 87.7%; in assay [5] it was -28.7%; in assay [6], -20.8%. Moreover, the “% Stimulation of control agonist response” value (“% Stimulation” below) was 7.10 ± 1.47% in assay [3]; 17.2 ± 8.4% in assay [4]; 119.9% and 119.9 ± 2.44% in assay [5]; 86.30% and 86.30 ± 0.99% in assay [6]. Moreover, the inhibition at 25 µM was 97.2% in assay [3] and 92.3% in assay [4]. The EC50 came to 15.1 µM in assay [5] and 17.2 µM in assay [6]. Also, the “agonist response (%)” value is reported as 71.92% in assay [5] and 63.00% in assay [6].
As for `CC(C)=CCc1c(-c2ccc(O)cc2O)oc2c(C3C=C(C)CC(c4ccc(O)cc4O)C3C(=O)c3ccc(O)cc3O)c(O)cc(O)c2c1=O` (stereo not drawn) [Compound 2, kuwanon G], in assay [1], the IC50 was determined as 70.2 ± 2.6 µM and the Ki was found to be 28.3 ± 2.02 µM. Further, the “Inhibition Type” value in assay [1] (hMAO-A) is reported as “Competitive”. The Ki in assay [2] (Dixon plot, read-out: Ki Value) was 52.1 ± 5.56 µM. Besides, in assay [2], the “Inhibition Type” value is on record as “Noncompetitive” and the IC50 is 57.7 ± 2.12 µM. Also, in the assay with hMAO, the “% inhibition of hMAO activity” value was determined as 99.05%. For the same compound, in assay [3], the IC50 amounted to 31.2 µM, the inhibition at 100 µM is 99.2%, the “% Stimulation” value is on record as “NSI” and the inhibition at 25 µM worked out at 33.7%. In assay [4], the IC50 is 16.5 µM, the “% Stimulation” value worked out at 0.85 ± 0.24%, the inhibition at 100 µM is 98.8% and the inhibition at 25 µM turned out to be 91.1%. Besides, in assay [5], the midpoint of the response, the EC50, lay at 20.2 µM and the inhibition at 100 µM is -27.4%. For the same compound, in assay [6], the EC50 worked out at 21 µM; the “% Stimulation” value was 90.45% and 90.45 ± 0.14%; the “agonist response (%)” value amounted to 58.66%; the inhibition at 100 µM is -29.6%.
Regarding `Cc1cc2c3c(c1)-c1c(O)cc(-c4cc5ccc(O)cc5o4)cc1OC3(c1ccc(O)cc1O)Oc1cc(O)ccc1-2` (stereo not drawn) [Compound 3, albanol B], the Ki was found to be 46.9 ± 4.12 µM in assay [1] (setting [7]) and 55.2 ± 7.79 µM in assay [2] (secondary plot, read-out: Kic (binding constant with free enzyme)). In addition, the “Inhibition Type” value in assay [1] (hMAO-A) is recorded as “Competitive”; in assay [2], “mixed type”. Moreover, the IC50 in assay [1] (setting [8]) turned out to be 114 ± 2.3 µM; in assay [2], 90.6 ± 1.72 µM; in assay [3] (setting [9]) it was 18.4 µM; in assay [4] it was 7.16 µM. Moreover, the “Kiu (binding constant with enzyme-substrate complex)” value in assay [2] (secondary plot) amounted to 186.2 ± 10.26 µM. Further, the “% inhibition of hMAO activity” value with hMAO is listed as 74.85%. The inhibition at 100 µM was 78.5% in assay [3], 67.8% in assay [4], -13.4% in assay [5] and 26.9% in assay [6]. Moreover, the “% Stimulation” value in assay [3] is 4.10 ± 1.06%; in assay [4] it was “INTER”; in assay [5], 102.8% and 102.8 ± 1.36%; in assay [6], 46.10% and 46.10 ± 1.76%. The inhibition at 25 µM is 81.1% in assay [3] and 66.8% in assay [4]. The compound further displayed an EC50 in assay [5] of 12.6 µM. Also, the “agonist response (%)” value in assay [5] is 94.93%.

What is called IC50 is the point on the concentration scale where inhibition reaches its midpoint. As usually defined, the inhibition is the drop in the measured response relative to a control, in per cent. The term EC50 denotes the concentration that produces a half-maximal response. Low values mean greater potency, high ones weaker potency.
